The values that follow come from PMC12472494, “Anticonvulsant Potential of 1-Aryl-6,7-dimethoxy-1,2,3,4-tetrahydroisoquinolines: Insights from Strychnine and Nicotine Models in In Vivo and In Silico Studies” (Pharmaceuticals, 2025).

Data set [1] has as its system strychnine-induced seizures. Briefly: Strychnine-induced seizure model. It is filed as in vivo, mice. The conditions noted are these: for increase of the survival rate of the animals: reference drugs, versus control (100% died). The text has this:
(§1) The anticonvulsant effects of the examined substances were studied in male white mice weighing 18–22 g, divided into the following groups: control (including the strychnine and nicotine groups), carbamazepine group, Convulex group, and experimental groups (one for each tested substance). Simple randomization (“heads or tails” coin toss) was used to assign animals to groups. Each group contained 10 animals. Healthy animals were included in the experiments after a 14-day quarantine period. No animals were excluded from the study. Convulsant agents were administered subcutaneously at doses of 10.0 mg/kg for nicotine (Sigma–Aldrich, Saint Louis, MO, USA) and 1.5 mg/kg for strychnine (Sigma–Aldrich, Saint Louis, MO, USA), 60 min after the oral administration of the test substances at doses ranging from 0.1 to 10 mg/kg. The onset time, duration of tremors and seizures, and survival rate of the animals were recorded. Carbamazepine (Darnitsa, Kiev, Ukraine) at doses of 5.0–10.0 mg/kg and Convulex (valproate) (Gerot Pharmazeutika GmbH, Vienna, Austria) at doses of 75.0–100.0 mg/kg (based on the therapeutic anticonvulsant dose) were used as reference drugs.
(§2) Data were presented as mean ± SD for different groups. Statistical analysis was performed using OriginPro 9.0 (MicroCal Software, Northampton, MA, USA), with p < 0.05 considered statistically significant.

Data set [2] deals with tremorogenic and convulsive actions of nicotine. Briefly: Nicotine-induced tremor and seizure model. It is filed as in vivo, mice. The conditions noted are these: for survival rate: reference drugs; for responders at 1 mg/kg: po.
Source text: as §1, §2

Details of data set [3]: method as in PMID 36677539. The conditions noted are these: per os; cited from earlier work.
The mark [4] stands for this setting: dose 5.0 mg/kg, strychnine 1.5 mg/kg s.c.
Where [5] appears, read: dose 10.0 mg/kg, strychnine 1.5 mg/kg s.c.
Setting [6] is: doses of 5–10 mg/kg, versus control.
Where [7] appears, read: Mus musculus, sc, read-out: Survival Rate.
[8] abbreviates: dose 5.0 mg/kg, nicotine 10 mg/kg s.c.
Where [9] appears, read: dose 10.0 mg/kg, nicotine 10 mg/kg s.c.
Where [10] appears, read: Mus musculus, oral dose 1.0 mg/kg 60 min before strychnine 1.5 mg/kg s.c., N = 10, read-out: Survival Rate.
Where [11] appears, read: oral dose 1.0 mg/kg 60 min before strychnine 1.5 mg/kg s.c., mean ± SD, N = 10.
Setting [12] is: Mus musculus, read-out: Survival Rate.
[13] abbreviates: oral dose 1.0 mg/kg 60 min before nicotine 10 mg/kg s.c., mean ± SD, N = 10.
Setting [14] is: dose 75.0 mg/kg, strychnine 1.5 mg/kg s.c.
Where [15] appears, read: dose 100.0 mg/kg, strychnine 1.5 mg/kg s.c.
The mark [16] stands for this setting: doses of 75–100 mg/kg, versus control.
Setting [17] is: dose 75.0 mg/kg, nicotine 10 mg/kg s.c.
[18] abbreviates: dose 100.0 mg/kg, nicotine 10 mg/kg s.c.

Take `NC(=O)N1c2ccccc2C=Cc2ccccc21` [Carbamazepine, reference compound]: in data set [1] (Mus musculus, sc, dose 5.0 mg/kg, strychnine 1.5 mg/kg s.c., read-out: Survival Rate), the responders at 5 mg/kg came to 40%. In data set [1] (Mus musculus, sc, dose 10.0 mg/kg, strychnine 1.5 mg/kg s.c., read-out: Survival Rate), the responders at 10 mg/kg came out at 50%. In data set [1] (setting [4]), the “Duration of Tremor and Seizures” value was determined as 0.43 ± 0.5 min; the “Latency to Tremor and Seizure Onset” value was 14.6 ± 1.4 min. For the same compound, in data set [1] (setting [5]), the “Duration of Tremor and Seizures” value is 0.38 ± 0.8 min; the “Latency to Tremor and Seizure Onset” value was determined as 12.6 ± 1.7 min. Moreover, in data set [1] (setting [6]), the “increase of latency time for seizure onset” value is given as 29–49% and the “reduction of the duration of seizures” value is given as 21–37%. Further, the “increase of the survival rate of the animals” value in data set [1] is on record as 40–50%. Besides, in data set [2] (setting [7]), the responders at 5 mg/kg came to 60% and the responders at 10 mg/kg was found to be 80%. Also, in data set [2] (setting [8]), the “Duration of Seizures” value came to 15.2 ± 0.9 min and the “Latency to Seizure Onset” value turned out to be 1.57 ± 0.07 min. For the same compound, in data set [2] (setting [9]), the “Duration of Seizures” value was 4.7 ± 0.6 min and the “Latency to Seizure Onset” value came out at 1.5 ± 0.02 min. Moreover, in data set [2], the survival rate was 60–80%.

As to `COc1cc2c(cc1OC)C(c1ccccc1)NCC2` (stereo not shown) [Compound 2, 1-Phenyl-6,7-dimethoxy-1,2,3,4-tetrahydroisoquinoline], the responders at 1 mg/kg in data set [1] (setting [10]) came to 60%. Further, in data set [1] (setting [11]), the “Duration of Tremor and Seizures” value was determined as 0.43 ± 0.9 min; the “Latency to Tremor and Seizure Onset” value was 14.1 ± 1.5 min. In data set [2] (setting [12]), the responders at 1 mg/kg came out at 70%. Also, in data set [2] (setting [13]), the “Duration of Seizures” value amounted to 3.2 ± 0.6 min and the “Latency to Seizure Onset” value is on record as 3.2 ± 0.07 min. Further, the LD50 in data set [3] was 273.2 (249.7 ± 296.7) mg/kg.

Take `COc1cc2c(cc1OC)C(c1ccccc1O)NCC2` (stereo not shown) [Compound 3, 1-(2′-Hydroxyphenyl)-6,7-dimethoxy-1,2,3,4-tetrahydroisoquinoline]: the responders at 1 mg/kg in data set [1] (setting [10]) was determined as 60%. In data set [1] (setting [11]), the “Duration of Tremor and Seizures” value came to 0.29 ± 0.6 min; the “Latency to Tremor and Seizure Onset” value is reported as 14.5 ± 1.7 min. For the same compound, the responders at 1 mg/kg in data set [2] (setting [12]) is 90%. Moreover, the “survival rate of the animals increased to” value in data set [2] (at low doses (0.1–5 mg/kg)) is recorded as 90–100%. In data set [2] (doses of 0.1–5 mg/kg), the “activity against tremorogenic and convulsive actions of nicotine versus reference drugs (in words)” value is on record as “comparable activity to the reference drugs”. In data set [2] (setting [13]), the “Duration of Seizures” value is 9.0 ± 0.4 min and the “Latency to Seizure Onset” value came out at 2.6 ± 0.08 min. Also, the LD50 in data set [3] is 365.3 (326.1 ± 394.5) mg/kg.

For the compound `COc1cc2c(cc1OC)C(c1ccc(O)cc1)NCC2` (stereo not shown) [Compound 4, 1-(4′-Hydroxyphenyl)-6,7-dimethoxy-1,2,3,4-tetrahydroisoquinoline], the responders at 1 mg/kg in data set [1] (setting [10]) amounted to 70%. In addition, in data set [1] (setting [11]), the “Duration of Tremor and Seizures” value is listed as 0.57 ± 0.7 min; the “Latency to Tremor and Seizure Onset” value came out at 14.2 ± 1.8 min. Moreover, in data set [2] (setting [12]), the responders at 1 mg/kg was 60%. Also, in data set [2] (setting [13]), the “Duration of Seizures” value is given as 10.5 ± 0.8 min and the “Latency to Seizure Onset” value was 1.8 ± 0.05 min. In addition, the LD50 in data set [3] is reported as 924.2 (893.9 ± 953.9) mg/kg.

As to `CCCC(CCC)C(=O)O` [Valproate (Convulex), Valproate, reference compound], the responders at 75 mg/kg was 40% in data set [1] (setting [7]) and 90% in data set [2] (Mus musculus, sc, dose 75.0 mg/kg, nicotine 10 mg/kg s.c., read-out: Survival Rate). Moreover, the responders at 100 mg/kg in data set [1] (setting [7]) was 20%; in data set [2] (Mus musculus, sc, dose 100.0 mg/kg, nicotine 10 mg/kg s.c., read-out: Survival Rate), 90%. For the same compound, the entries for the “Duration of Tremor and Seizures” value in data set [1] (setting [14]) and in data set [1] (setting [15]) were 0.34 ± 0.6 min and 0.32 ± 0.4 min, respectively. The “Latency to Tremor and Seizure Onset” value came to 15.4 ± 1.5 min in data set [1] (setting [14]) and 14.3 ± 1.3 min in data set [1] (setting [15]). The “increase of latency time” value in data set [1] (setting [16]) is on record as 46–57%. For the same compound, the “reduction of the duration of seizures” value in data set [1] (setting [16]) turned out to be 53%. Further, the “increase of the survival rate of the animals” value in data set [1] is 20–40%. Besides, the “Duration of Seizures” value was 6.2 ± 0.4 min in data set [2] (setting [17]) and 10.8 ± 0.8 min in data set [2] (setting [18]). Besides, the “Latency to Seizure Onset” value in data set [2] (setting [17]) turned out to be 1.2 ± 0.04 min; in data set [2] (setting [18]) it was 1.5 ± 0.06 min. Moreover, in data set [2], the survival rate amounted to 90%.
